Measurements reported in patent publication US6642251B1, “Geometrically restricted 2-indolinone derivatives as modulators of protein kinase activity” (Sugen, Inc., priority 1998, dated 2003).

System: A375 cells (melanoma)
Experiment: A375 sc xenograft animal model
Assay type: in vivo, athymic mice (BALB/c, nu/nu)
Details: for % inhibition: vs vehicle
Text: The ability of human tumors to grow as xenografts in athymic mice (e.g., Balb/c, nu/nu) provides a useful in vivo model for studying the biological response to therapies for human tumors. Since the first successful xeno-transplantation of human tumors into athymic mice, (Rygaard and Poylsen, 1969, Acta Pathol. Microbial. Scand., 77:758-760), many different human tumor cell lines (e.g., mammary, lung, genitourinary, gastro-intestinal, head and neck, glioblastoma, bone, and malignant melanomas) have been transplanted and successfully grown in nude mice. The following assays may be used to determine the level of activity, specificity and effect of the different compounds of the present invention. Three general types of assays are useful for evaluating compounds: cellular/catalytic, cellular/biological and in vivo. The object of the cellular/catalytic assays is to determine the effect of a compound on the ability of a TK to phosphorylate tyrosines on a known substrate in a cell. The object of the cellular/biological assays is to determine the effect of a compound on the biological response stimulated by a TK in a cell. The object of the in vivo assays is to determine the effect of a compound in an animal model of a particular disorder such as cancer.
Suitable cell lines for subcutaneous xenograft experiments include C6 cells (glioma, ATCC #CCL 107), A375 cells (melanoma, ATCC #CRL 1619), A431 cells (epidermoid carcinoma, ATCC #CRL 1555), Calu 6 cells (lung, ATCC #HTB 56), PC3 cells (prostate, ATCC #CRL 1435), SKOV3TP5 cells and NIH 3T3 fibroblasts genetically engineered to overexpress EGFR, PDGFR, IGF-1R or any other test kinase. The following protocol can be used to perform xenograft experiments:
Female athymic mice (BALB/c, nu/nu) are obtained from Simonsen Laboratories (Gilroy, Calif.). All animals are maintained under clean-room conditions in Micro-isolator cages with Alpha-dri bedding. They receive sterile rodent chow and water ad libitum.
Cell lines are grown in appropriate medium (for example, MEM, DMEM, Ham's F10, or Ham's F12 plus 5%-10% fetal bovine serum (FBS) and 2 mM glutamine (GLN)). All cell culture media, glutamine, and fetal bovine serum are purchased from Gibco Life Technologies (Grand Island, N.Y.) unless otherwise specified. All cells are grown in a humid atmosphere of 90-95% air and 5-10% CO2 at 37° C. All cell lines are routinely subcultured twice a week and are negative for mycoplasma as determined by the Mycotect method (Gibco).
Cells are harvested at or near confluency with 0.05% Trypsin-EDTA and pelleted at 450×g for 10 min. Pellets are resuspended in sterile PBS or media (without FBS) to a particular concentration and the cells are implanted into the hindflank of the mice (8-10 mice per group, 2-10×10^6 cells/animal). Tumor growth is measured over 3 to 6 weeks using venier calipers. Tumor volumes are calculated as a product of length×width×height unless otherwise indicated. P values are calculated using the Students t-test. Test compounds in 50-100 μL excipient (DMSO, or VPD:D5W (U.S. Pat. No. 5,610,173 to Sxhwartz, et al.), can be delivered by IP injection at different concentrations generally starting at day one after implantation.

Compound: COc1ccc2c(c1)C(CC(=O)[O-])CC2=C1C(=O)Nc2ccccc21.[Na+] (stereo not drawn) [Compound 13, [6-Methoxy-3-(2-oxo-1,2-dihydroindol-3-ylidene)-indan-1-yl]acetic Acid Sodium Salt]
- Average Tumor Volume (50 mg/kg/day): 569.9 mm3
- % inhibition (50 mg/kg/day): 24.6%
- Average Tumor Volume (100 mg/kg/day): 324.4 mm3
- % inhibition (100 mg/kg/day): 57.1%
- Average Tumor Volume (200 mg/kg/day): 278.8 mm3
- % inhibition (200 mg/kg/day): 63.1%
